Experimental data as given in PMC4013357 (The Journal of Veterinary Medical Science, 2013).

Target: T1, rBboDHODH (Babesia bovis dihydroorotate dehydrogenase) (Babesia bovis, UniProt A7AUQ8)
T1 sequence (A7AUQ8 1-415): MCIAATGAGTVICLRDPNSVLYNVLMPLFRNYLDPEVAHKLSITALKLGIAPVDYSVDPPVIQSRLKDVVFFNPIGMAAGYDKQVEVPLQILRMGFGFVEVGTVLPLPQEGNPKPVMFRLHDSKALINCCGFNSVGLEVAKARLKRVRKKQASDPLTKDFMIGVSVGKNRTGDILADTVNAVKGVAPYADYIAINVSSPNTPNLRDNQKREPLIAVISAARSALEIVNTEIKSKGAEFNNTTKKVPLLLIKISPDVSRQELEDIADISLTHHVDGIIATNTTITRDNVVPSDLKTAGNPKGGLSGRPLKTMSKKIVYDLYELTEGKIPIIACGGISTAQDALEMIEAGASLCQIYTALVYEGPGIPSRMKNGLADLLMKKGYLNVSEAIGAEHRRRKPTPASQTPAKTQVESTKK
Assay: biochemical
Conditions: read-out: Relative activity (%)

| Structure (SMILES) | activity at 1 µM [%] | activity at 1000 µM [%] |
| --- | --- | --- |
| O=C1C(O)=C([C@H]2CC[C@H](c3ccc(Cl)cc3)CC2)C(=O)c2ccccc21 [ATV, atovaquone] | 19.1 |  |
| Cc1oncc1C(=O)Nc1ccc(C(F)(F)F)cc1 [LFN, leflunomide] |  | 51.6 |
